We go through five compounds from patent publication US7115651B2, “Macrocycles and uses thereof” (Sloan-Kettering Institute for Cancer Research, priority 2000, dated 2006).

Assay [1] has as its system small cell lung cancer cell line with defective Rb function. As to the kind of experiment: inhibition of small cell lung cancer cells with defective Rb function. It is filed as cell-based, human. The conditions noted are these: for inhibition of small cell lung cancer cell line with defective Rb function / potency compared with 17-AGG in small cell lung cancer cell line with defective Rb function: FIG. 20. As for the experimental part:
(§1) The human cancer cell lines MCF7, BT474 and N417 were obtained from the American Type Culture Collection (Manassas, Va., USA) and maintained in a 1:1 mixture of DME:F12 supplemented with 2 mM glutamine, 50 U/mL penicillin, 50 U/mL streptomycin and 5% heat inactivated fetal bovie serum (Gemini Bioproducts) and incubated at 37° C. in 5% CO2.
(§2) Growth assays were performed by seeding 10000 cells (MCF7, BT474 or N417) per well in 6-well dishes and incubating for 24 h before drug treatment. Drugs or vehicle were administered as outlined for each experiment, and cells were incubated for the time periods depcited and then the number quantified by a Coulter counter.

The test system of the next assay is HSP90. Put plainly: binding of aigialomycin D to HSP90. Conditions: compared with radicicol.
A further assay deals with KB cells. The conditions noted are these: against KB cells; Isaka et al. 2002; cited from earlier work.
The subject of the next assay is P. falciparum. Conditions: against P. falciparum; Isaka et al. 2002; cited from earlier work.
In another assay the test system is Rb negative cells. Put plainly: cell cycle effect in Rb negative cells. It is filed as cell-based. As for the experimental part:
(§3) Cell cycle distribution was assayed according to Nusse et al. with a Becton Dickinson fluorescence-activated cell sorter and analyzed by a Cell Cycle Multi-cycle system (Phoenix Flow System, San Diego, Calif., USA).

The test system of assay [2] is breast cancer cell with wild type Rb. As to the kind of experiment: inhibition of breast cancer cells with wild type Rb. Conditions: FIG. 20. It is filed as cell-based, human. Here is the method: as §1, §2
Assay [3] concerns MCF7 cells (HER2 overexpressed, Rb positive). As to the kind of experiment: growth of MCF7 cells treated with radicicol and analogues. It is filed as cell-based, human. Here is the method: as §1, §2
Assay [4] has as its system Rb (retinoblastoma) positive cells. Put plainly: cell cycle effect in Rb positive cells. It is filed as cell-based. Here is the method:
as §3

The subject of a further assay is HER2. Put plainly: reduction of HER2 in MCF7 and BT474 cells (protein assay, anti-Her2 blot). It is filed as cell-based, human. The conditions noted are these: 0.5 μM through 5 μM. Here is the method:
The human cancer cell lines MCF7, BT474 and […] were obtained from the American Type Culture Collection (Manassas, Va., USA) and maintained in a 1:1 mixture of DME:F12 supplemented with 2 mM glutamine, 50 U/mL penicillin, 50 […] and 5% heat inactivated fetal bovie serum (Gemini Bioproducts) and incubated at 37° C. in 5% CO2. Cells were grown to 60-70% confluence and exposed to drugs or DMSO vehicle for the indicated time periods. Lysates were prepared using 5 mM Tris pH 7.4, 2% SDS and 10% glycerol lysis buffer. Protein concentration was determined using the BCA kit (Pierce Chemical Co.) according to the manufacturer's instructions. Clarified protein lysates (20-50 μg) were electrophoretically resolved on denaturing SDS-PAGE, transferred to ntirocellulose and probed with the following primary antibodies: anti-Her2 (C-18).

On to `C=CCNC1=C2C[C@@H](C)C[C@H](OC)[C@H](O)[C@@H](C)/C=C(\C)[C@H](OC(N)=O)[C@@H](OC)/C=C\C=C(/C)C(=O)NC(=CC1=O)C2=O` [17-AGG, 17-allylaminogeldanamycin], for which the “potency in cells with wild type Rb versus cells with defective Rb function” value in assay [1] (wild type Rb vs defective Rb) is on record as “much more potent against cells with wild type Rb than in cells with defective Rb function”.

`C[C@H]1C/C=C/[C@@H](O)[C@@H](O)CC/C=C/c2cc(O)cc(O)c2C(=O)O1` [Aigialomycin D]: the “binding to HSP90” value in the assay on HSP90 is recorded as “does bind to HSP90 (though significantly less so than radicicol (2))”. For the same compound, the “antitumor activity IC50” value in the assay with KB cells was 3.0 µg/mL. Also, the “antimalarial activity IC50” value with P. falciparum is 6.6 µg/mL.

Turning to `C[C@@H]1C[C@H]2O[C@@H]2/C=C\C=C\C(=O)Cc2c(Cl)c(O)cc(O)c2C(=O)O1` [Radicicol], the “cell cycle block in Rb negative cells” value in the assay with Rb negative cells was “blocked in the M (mitosis) phase”. Moreover, in assay [1], the “inhibition of small cell lung cancer cell line with defective Rb function” value was “potent inhibitors” and the “potency compared with 17-AGG in small cell lung cancer cell line with defective Rb function” value is on record as “much more potent than 17-AGG”. Besides, the “inhibition of breast cancer cell with wild type Rb” value in [2] is “potent inhibitors”. The “efficacy in side by side experiment with radicicol (growth of MCF7 cells, FIG. 19)” value in assay [3] is “demonstrated efficacy”. Besides, the “cell cycle block in Rb positive cells” value in [4] is listed as “clear G1 (growth) phase block”.

For `C[C@@H]1C[C@H]2C[C@@H]2/C=C\C=C\C(=O)Cc2c(Cl)c(O)cc(O)c2C(=O)O1` [cyclopropyl radicicol, Cycloproparadicicol], in assay [1], the “inhibition of small cell lung cancer cell line with defective Rb function” value is on record as “potent inhibitors” and the “potency compared with 17-AGG in small cell lung cancer cell line with defective Rb function” value is “much more potent than 17-AGG”. Further, the “inhibition of breast cancer cell with wild type Rb” value in assay [2] is reported as “potent inhibitors”. The “effectiveness in reducing HER2 compared with radicicol” value in the assay with HER2 is listed as “at least as effective, if not better than radicicol”.

Regarding radicicol oxime [VII], the “efficacy in side by side experiment with radicicol (growth of MCF7 cells, FIG. 19)” value in assay [3] is “demonstrated efficacy”.
